Here are results for 17 compounds from US4304778A, “4-Aminoquinazoline derivatives having fungicidal, anti-insect and acaricidal properties” (Sankyo Company Limited, priority 1978, dated 1981).

Data set [1] deals with Colletotrichum lagenarium. The data set is described as follows: Effect on anthracnose in cucumbers. It counts as in vivo. Conditions: cucumber anthracnose; 500 ppm; seven days; cotyledon and first leaf. Here is the method:
(§1) In the following Examples, wettable powders prepared according to the procedures of Example 4 were used, each powder containing 50% by weight of the active compound of this invention.
Groups of cucumber plants (variety Sagamihanshiro) were planted, two per pot, in a series of Wagner pots (diameter 12 cm) and were used as host plants when the first leaf was fully grown and open. Each test group of three pots was treated with one of the active compounds shown in Table 4 by spraying an aqueous suspension containing 500 ppm of the active compound onto the plants at the rate of 30 ml per 3 pots. After air-drying the plants, a spore suspension of the pathogenic microorganism Colletotrichum lagenarium was sprayed onto the plants and the plants were kept in a wet room for 24 hours at 20°-22° C. and 100% relative humidity. The pots were then placed in a greenhouse at 26° C. and, seven days after the spore suspension had been sprayed on, the percentage diseased area of the cotyledon and the first leaf was calculated.

Data set [2] relates to Alternalia solani. The data set is described as follows: Effect on early blight in tomatoes. It counts as in vivo. As to conditions: tomato early blight; 500 ppm; 3 days in greenhouse. On the procedure: as §1
Groups of tomato plants (variety Shinfukuju) were planted, two per pot, in a series of Wagner pots (diameter 12 cm) and used for the following test when at the 5 to 6 leaf stage. Each pot was treated with 30 ml of an aqueous suspension containing 500 ppm of one of the active compounds shown in Table 3, applied to the plants by spraying over their stems and leaves. After air-drying the plants, a spore suspension of the pathogenic microorganism Alternalia solani was sprayed over each plant, and the plants were kept in a wet room for 24 hours at 20°-22° C. and 100% relative humidity. The pots were then placed in a greenhouse for 3 days. All leaves were then examined for signs of the disease and the number of disease spots per leaf was calculated, using three pots for each compound.

Data set [3] relates to Phytophthora infestans. It counts as in vivo. Conditions: tomato late blight; 500 ppm; after 5 days; average per leaf.
The subject of data set [4] is guppies. Put plainly: Toxicity to guppies. It counts as in vivo. As to conditions: LC50 after 48 hours classified. On the procedure:
In this example the toxicity of the compounds of the invention towards guppies was estimated and is compared with that of corresponding compounds as disclosed and claimed in our co-pending U.S. Application No. 910,117 filed May 30, 1978. The LC50 was determined after 48 hours and the toxicity to guppies was classified into the rankings (i), (ii) and (iii) according to the following classification scheme: […]

The test system of data set [5] is Sphaerotheca fuliginea. Put plainly: Effect on powdery mildew in cucumbers. Conditions: cucumber powdery mildew; 500 ppm; 10 days. It counts as in vivo. Here is the method:
as §1
Cucumber seedlings (variety Sagamihanshiro), planted two per 12 cm diameter pot, were used as host plants at the stage when the first leaf was fully grown and open. Each test group of three pots was treated with one of the active compounds shown in Table 5 by spraying an aqueous suspension containing 500 ppm of the active compound onto the plants at the rate of 20 ml per 3 pots. After air-drying the plants, the host plants were inoculated with the microorganism Sphaerotheca fuliginea by brushing already infected cucumber leaves with a small brush and letting the microorganism fall onto the host plants. The inoculated plants were kept in a greenhouse at 24°-26° C. for 10 days. At the end of this time, the percentage diseased area was measured.

Data set [6] deals with cockroach larvae. Conditions: 24 hours; 25° C.
The test system of data set [7] is third instar larvae of the tobacco cutworm. The data set is described as follows: Repellent action against the third instar larvae of the tobacco cutworm. Also on record: key: -: no ingestion; ±: very little ingestion; +: some ingestion; ++: considerable ingestion. As to conditions: cabbage leaves dipped in 500 ppm, 72 hours. It counts as in vivo.
Description: as §1
Cabbage leaves were dipped for 30 seconds in an aqueous suspension containing 500 ppm of one of the active compounds shown in Table 6. After air-drying, each leaf was placed into a plastic receptacle having a diameter of 8 cm and the third instar larvae (10 per receptacle) of the tobacco cutworm were released onto the leaves. After 72 hours, the extent of ingestion of the leaves was measured, using two receptacles for each test compound. The results are shown in Table 6, using the following notation (which is also employed, with the same meaning, in following Table 9): […]

Data set [8] has as its system final instar larvae of the diamondback moth (Plutella xylostella). Put plainly: Repellent and emergence-inhibition effect on the final instar larvae of diamondback moths. It counts as in vivo. Also on record: key to Extent of ingestion: -: no ingestion; ±: very little ingestion; +: some ingestion; ++: considerable ingestion. As to conditions: 72 hours; for pest or weed control at 500 ppm: Plutella xylostella, read-out: Emergence-inhibition rate (%); for Extent of ingestion: radish leaves dipped in 500 ppm.
Description: as §1
Leaves of the Japanese radish (Raphanus sativus) were dipped for 30 seconds into a liquid containing 500 ppm of one of the compounds shown in Table 9. After air-drying the leaves, each leaf was placed into a plastic icecream cup (diameter 8 cm) and 15 final instar larvae of the diamondback moth (Plutella xylostella) were placed into each cup. Each test was conducted in duplicate and the results were averaged.

For the compound `Cc1ccccc1OCCN(C)c1ncnc2ccccc12` [Compound No. 1, 4-{N-methyl-N-[2-(2-methylphenoxy)ethyl]amino}-quinazoline], the “Diseased area (%)” value in data set [1], in data set [3] and in data set [5] was 0% throughout. In addition, the “No. of disease spots per leaf” value in data set [2] is reported as 8 spots per leaf. For the same compound, the Toxicity ranking result in data set [4] is given as “ii (all fish dead at 10 ppm but alive at 0.5 ppm)”.

Take `CCN(CCOc1ccccc1C)c1ncnc2ccccc12` [Compound No. 2, 4-{N-ethyl-N-[2-(2-methylphenoxy)ethyl]amino}quinazoline]: in data set [6], the “Mortality rate (%), 0.5mg test cpd/10 cockroaches/bottle” value was 90%. The “Mortality rate (%), 1mg test cpd/10 cockroaches/bottle” value in data set [6] is on record as 100%. The results for the “Diseased area (%)” value in data set [1], in data set [3] and in data set [5] were 0%, 3% and 0%, respectively. For the same compound, the “No. of disease spots per leaf” value in data set [2] was found to be 16 spots per leaf. Moreover, the Toxicity ranking result in data set [4] was “ii (all fish dead at 10 ppm but alive at 0.5 ppm)”.

Regarding `Cc1ccccc1OCCN(c1ncnc2ccccc12)C1CCCCC1` [compound 9, 4-{N-cyclohexyl-N-[2-(2-methylphenoxy)ethyl]amino}quinazoline], in data set [2], the “No. of disease spots per leaf” value is listed as 15 spots per leaf. For the same compound, in data set [3], the “Diseased area (%)” value came to 13%.

On to `CCCCN(CCOc1ccccc1C)c1ncnc2ccccc12` [compound 10, 4-{N-butyl-N-[2-(2-methylphenoxy)ethyl]amino}quinazoline], for which the “No. of disease spots per leaf” value in data set [2] is 4 spots per leaf. In addition, in data set [5], the “Diseased area (%)” value was 0%.

With `CN(CCOc1ccc(Cl)cc1)c1ncnc2ccccc12` [compound 19, 4-{N-[2-(4-chlorophenoxy)ethyl]-N-methylamino}quinazoline], in data set [6], the “Mortality rate (%), 0.5mg test cpd/10 cockroaches/bottle” value came out at 85% and the “Mortality rate (%), 1mg test cpd/10 cockroaches/bottle” value is given as 100%. For the same compound, the Extent of ingestion entry in data set [7] was “+”. For the same compound, in data set [8], the pest or weed control at 500 ppm stood at 80% and the Extent of ingestion entry is listed as “±”.

Turning to `C=CCN(CCOc1ccccc1C(C)C)c1ncnc2ccccc12` [compound 25, 4-{N-allyl-N-[2-(2-isopropylphenoxy)ethyl]amino}quinazoline], the “Mortality rate (%), 0.5mg test cpd/10 cockroaches/bottle” value in data set [6] came to 85%. Also, the “Mortality rate (%), 1mg test cpd/10 cockroaches/bottle” value in data set [6] came out at 100%. The results for the “Diseased area (%)” value in data set [1], in data set [3] and in data set [5] were 8%, 0% and 0%, respectively. In addition, the “No. of disease spots per leaf” value in data set [2] stood at 15 spots per leaf.

Regarding `C=CCN(CCOc1ccc(C)cc1C)c1ncnc2ccccc12` [compound 26, 4-{N-allyl-N-[2-(2,4-dimethylphenoxy)ethyl]amino}quinazoline], in data set [6], the “Mortality rate (%), 0.5mg test cpd/10 cockroaches/bottle” value stood at 90%. Moreover, the “Mortality rate (%), 1mg test cpd/10 cockroaches/bottle” value in data set [6] was determined as 100%. Also, the “Diseased area (%)” value in data set [1] is recorded as 0%; in data set [3], 3%; in data set [5] it was 0%. Further, the Extent of ingestion entry in data set [7] and in data set [8] was “± to +” each time. Moreover, the pest or weed control at 500 ppm in data set [8] stood at 80%.

Regarding `CC(C)c1ccccc1OCCN(c1ncnc2ccccc12)C1CCCCC1` [compound 31, 4-{N-cyclohexyl-N-[2-(2-isopropylphenoxy)ethyl]amino}quinazoline], the “No. of disease spots per leaf” value in data set [2] was determined as 13 spots per leaf.

For the compound `CCN(CCOc1ccc(C)cc1C)c1ncnc2ccccc12` [compound 32, 4-{N-[2-(2,4-dimethylphenoxy)ethyl]-N-ethylamino}quinazoline], in data set [6], the “Mortality rate (%), 0.5mg test cpd/10 cockroaches/bottle” value is 85%. The “Mortality rate (%), 1mg test cpd/10 cockroaches/bottle” value in data set [6] is on record as 100%. Moreover, the results for the “Diseased area (%)” value in data set [1], in data set [3] and in data set [5] were 8%, 5% and 0%, respectively.

On to `Cc1ccc(OCCN(c2ncnc3ccccc23)C(C)C)c(C)c1` [compound 34, 4-{N-[2-(2,4-dimethylphenoxy)ethyl]-N-isopropylamino}quinazoline], for which the “No. of disease spots per leaf” value in data set [2] was found to be 15 spots per leaf. For the same compound, the “Diseased area (%)” value in data set [3] is 0%; in data set [5], 10%.

With `CCN(CCOc1ccc(Cl)cc1C)c1ncnc2ccccc12` [compound 38, 4-{N-[2-(4-chloro-2-methylphenoxy)ethyl]-N-ethylamino}quinazoline], the “Mortality rate (%), 0.5mg test cpd/10 cockroaches/bottle” value in data set [6] stood at 90%. Moreover, the “Mortality rate (%), 1mg test cpd/10 cockroaches/bottle” value in data set [6] is reported as 100%. Also, the Extent of ingestion result is reported as “±” in data set [7] and “- to ±” in data set [8]. The pest or weed control at 500 ppm in data set [8] worked out at 100%. Besides, the “Diseased area (%)” value is recorded as 13% in data set [3] and 0% in data set [5].

For the compound `CCCCN(CCOc1ccc(Cl)cc1C)c1ncnc2ccccc12` [compound 41, 4-{N-butyl-N-[2-(4-chloro-2-methylphenoxy)ethyl]amino}quinazoline], in data set [6], the “Mortality rate (%), 0.5mg test cpd/10 cockroaches/bottle” value came out at 85% and the “Mortality rate (%), 1mg test cpd/10 cockroaches/bottle” value came out at 100%. For the same compound, in data set [7], the Extent of ingestion result was “± to +”. Further, in data set [8], the pest or weed control at 500 ppm stood at 90% and the Extent of ingestion entry is reported as “±”.

Turning to `C=CCN(CCOc1ccc(Cl)cc1C)c1ncnc2ccccc12` [compound 43, 4-{N-allyl-N-[2-(4-chloro-2-methylphenoxy)ethyl]amino}quinazoline], the “Mortality rate (%), 0.5mg test cpd/10 cockroaches/bottle” value in data set [6] is 90%. Further, the “Mortality rate (%), 1mg test cpd/10 cockroaches/bottle” value in data set [6] turned out to be 100%. Moreover, the Extent of ingestion entry in data set [7] is given as “+”; in data set [8] it was “±”. For the same compound, the pest or weed control at 500 ppm in data set [8] worked out at 70%. Further, the entries for the “Diseased area (%)” value in data set [3] and in data set [5] were 11% and 0%, respectively.

Turning to `CCN(CCOc1cc(C(C)C)ccc1C)c1ncnc2ccccc12` [compound 47, 4-{N-ethyl-N-[2-(5-isopropyl-2-methylphenoxy)ethyl]amino}quinazoline], in data set [6], the “Mortality rate (%), 0.5mg test cpd/10 cockroaches/bottle” value worked out at 85% and the “Mortality rate (%), 1mg test cpd/10 cockroaches/bottle” value was 100%. Also, the Extent of ingestion result in data set [7] was “± to +”. For the same compound, in data set [8], the pest or weed control at 500 ppm was 90% and the Extent of ingestion entry is “±”. For the same compound, the “Diseased area (%)” value in data set [5] came to 0%.

For the compound `CC=CCN(CCOc1ccccc1C(C)C)c1ncnc2ccccc12` [compound 51, 4-{N-(2-butenyl)-N-[2-(2-isopropylphenoxy)ethyl]amino}quinazoline], the “Diseased area (%)” value in data set [1], in data set [3] and in data set [5] was 0% throughout. Also, the “No. of disease spots per leaf” value in data set [2] stood at 4 spots per leaf.

Turning to `C=C(C)CN(CCOc1ccccc1C(C)C)c1ncnc2ccccc12` [compound 52, 4-{N-[2-(2-isopropylphenoxy)ethyl]-N-(2-methylallyl)amino}quinazoline], the “Diseased area (%)” value in data set [1] is given as 8%; in data set [3], 13%; in data set [5], 0%. The Toxicity ranking result in data set [4] is given as “i (all fish alive at 10 ppm)”.

`CCCCCCc1ccc(OCCN(C)c2ncnc3ccccc23)c(C)c1` [compound 57, 4-{N-[2-(4-hexyl-2-methylphenoxy)ethyl]-N-methylamino}quinazoline]: in data set [6], the “Mortality rate (%), 0.5mg test cpd/10 cockroaches/bottle” value is 90% and the “Mortality rate (%), 1mg test cpd/10 cockroaches/bottle” value turned out to be 100%. For the same compound, the Extent of ingestion result in data set [7] was “±”. Also, in data set [8], the pest or weed control at 500 ppm came to 100% and the Extent of ingestion entry is reported as “- to ±”.
